Consider eleven compounds from ChEMBL document CHEMBL1201862, “PubChem BioAssay data set” (2004).

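96-well plates; 48 h exposure; 5 concentrations. Endpoints by linear interpolation between flanking doses. Not reached: highest tested concentration assigned. GI50 marks 50% less growth.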 The source made the active and inactive calls. No stated cut-off is given here; in the data, active = GI50 up to about 1.1 µM and inactive = higher. Bounds are passed on as bounds.

For orientation: GI50 means the concentration giving 50% growth inhibition.

Some test systems named below: SK-MEL-2; TK-10; A498; MDA-MB-231; PC-3; NCI-H23; COLO 205; K562; HT-29; M14; SF-295; HCT-15; BT-549; SNB-75; HOP-62; KM12; SNB-19; RXF 393; MDA-MB-435; HOP-92.
Holding throughout (assay): DTP human tumour cell line panel, 48 h

For `O=S(=O)(c1ccccc1)c1ccc(/N=N/O)nc1`, the GI50 with SK-MEL-2, with TK-10, in the assay with A498, in the assay on MDA-MB-231, with PC-3 and in the assay on NCI-H23 was > 100 µM (inactive) throughout. In addition, the GI50 in the assay with COLO 205 was > 100 µM (inactive); in the assay on K562 it was > 100 µM (inactive); in the assay on HT-29, > 100 µM (inactive); in the assay with M14, > 100 µM (inactive); in the assay on SF-295 it was > 100 µM (inactive); with HCT-15 it was greater than 100 µM. The GI50 was > 100 µM (inactive) in the assay with BT-549; 62.2 µM (inactive) in the assay with SNB-75; > 100 µM (inactive) with HOP-62; > 100 µM (inactive) in the assay with KM12; > 100 µM (inactive) in the assay on SNB-19.

As for `CCOc1ccc(/C(C=O)=C(\Cl)c2ccc(OC)cc2)cc1`, the GI50 in the assay on SK-MEL-2 was > 100 µM (inactive); in the assay with RXF 393, > 100 µM (inactive); in the assay on TK-10, > 100 µM (inactive); in the assay with A498, > 100 µM (inactive); with MDA-MB-435, 9.4 µM (inactive); with MDA-MB-231 it was > 100 µM (inactive). Further, the GI50 was > 100 µM (inactive) with NCI-H23; > 51.5 µM (inactive) in the assay with COLO 205; 12.5 µM (inactive) with K562; > 39.4 µM (inactive) in the assay on HT-29; > 73.1 µM (inactive) with M14; > 100 µM (inactive) in the assay on SF-295. Besides, the GI50 is 69.3 µM (inactive) in the assay on HOP-92; 28.6 µM in the assay with HCT-15; > 100 µM (inactive) in the assay on BT-549; 36.6 µM (inactive) in the assay with SNB-75; 46.7 µM (inactive) with HOP-62; 56.6 µM (inactive) with KM12. Further, the GI50 with SNB-19 was > 91.8 µM (inactive).

Turning to `CNC1=C/C(=N/C2=CC(=N/C(=C\C#N)C(C)(C)O)/OC2(C)C)OC1(C)C`, the GI50 was 44.4 µM (inactive) with SK-MEL-2; 21.3 µM (inactive) with TK-10; 30.9 µM (inactive) with A498; 22.6 µM (inactive) in the assay with MDA-MB-435; 9.95 µM (inactive) with MDA-MB-231; 13.2 µM (inactive) with PC-3. Further, the GI50 in the assay with NCI-H23 is 33.3 µM (inactive); with COLO 205 it was 6.56 µM (inactive); in the assay with K562, 3.12 µM (inactive); in the assay with HT-29, 11.4 µM (inactive); with M14, 11.8 µM (inactive); with SF-295, 23.9 µM (inactive). Further, the GI50 with HOP-92 is 11.9 µM (inactive); with HCT-15, 5.31 µM; in the assay with BT-549, 29.6 µM (inactive); in the assay with SNB-75 it was 6.76 µM (inactive); in the assay on HOP-62, 7.96 µM (inactive); with KM12, 13.5 µM (inactive). The GI50 in the assay with SNB-19 was 33 µM (inactive).

As for `NCCCN1CCN(CCCNc2ccc3nnn4c5ccccc5c(=O)c2c34)CC1`, the GI50 in the assay on SK-MEL-2 was 18.7 µM (inactive); in the assay with TK-10, 24.9 µM (inactive); in the assay with A498, 18.6 µM (inactive); in the assay on MDA-MB-435, 21.6 µM (inactive); with MDA-MB-231, 13.1 µM (inactive); with PC-3, 12.5 µM (inactive). Also, the GI50 with NCI-H23 is 14.8 µM (inactive); in the assay on COLO 205, 4.07 µM (inactive); in the assay with K562 it was 8.07 µM (inactive); in the assay with HT-29, 13.3 µM (inactive); with M14 it was 17.6 µM (inactive); in the assay on SF-295, 16.8 µM (inactive). Further, the GI50 with HOP-92 was 18.8 µM (inactive); with HCT-15, 20.7 µM; in the assay on BT-549, 5.81 µM (inactive); in the assay on SNB-75, 17.7 µM (inactive); in the assay with HOP-62, 13.7 µM (inactive); in the assay on SNB-19 it was 12.8 µM (inactive).

On to `CC[C@H](C)[C@H]1NC(=O)[C@@H](NC(=O)[C@@H](CC(C)C)N(C)C(=O)C2CCCN2C(=O)[C@H](C)O)[C@@H](C)OC(=O)[C@H](Cc2ccc(OC)cc2)N(C)C(=O)[C@@H]2CCCN2C(=O)[C@H](CCCCNC(=O)OCc2ccccc2)NC(=O)[C@H](C)C(=O)[C@H](C(C)C)OC(=O)C[C@@H]1O` (stereo partly specified), for which the GI50 in the assay on SK-MEL-2 was 1.96 µM (inactive); in the assay with RXF 393, > 25 µM (inactive); in the assay on TK-10, 6.97 µM (inactive); with A498, > 25 µM (inactive); with MDA-MB-435 it was 5.86 µM (inactive); in the assay with PC-3 it was 3.93 µM (inactive). In addition, the GI50 is 10.7 µM (inactive) with NCI-H23; 3.91 µM (inactive) with COLO 205; 7.29 µM (inactive) in the assay on K562; 3.37 µM (inactive) in the assay with HT-29; 4.13 µM (inactive) in the assay on M14; 8.63 µM (inactive) in the assay with SF-295. In addition, the GI50 in the assay on HOP-92 was 3.49 µM (inactive); in the assay on HCT-15 it was greater than 25 µM; in the assay on BT-549, 7.93 µM (inactive); in the assay on HOP-62, 6.65 µM (inactive); in the assay with KM12, 4.73 µM (inactive); with SNB-19 it was 2.66 µM (inactive).

For `CC(=O)Oc1c2c(c3n(c1=O)CCCC3)C(=O)N(c1ccccc1)C2=O`, the GI50 is 45.8 µM (inactive) in the assay with SK-MEL-2; > 100 µM (inactive) in the assay with RXF 393; 94.6 µM (inactive) with TK-10; 46.9 µM (inactive) in the assay on MDA-MB-435; > 100 µM (inactive) with MDA-MB-231; 46.5 µM (inactive) with PC-3. Also, the GI50 in the assay with NCI-H23 was > 100 µM (inactive); in the assay with COLO 205, > 100 µM (inactive); with K562 it was > 100 µM (inactive); in the assay with HT-29, 94.2 µM (inactive); in the assay with M14, > 100 µM (inactive); with SF-295, 61 µM (inactive). Further, the GI50 in the assay with HOP-92 was 40.7 µM (inactive); with HCT-15, 59 µM; in the assay with BT-549 it was 38.2 µM (inactive); with SNB-75, 87.5 µM (inactive); in the assay with HOP-62, > 100 µM (inactive); in the assay with KM12 it was > 100 µM (inactive). Further, the GI50 in the assay on SNB-19 is > 100 µM (inactive).

`OCCCCCCCCCCCOc1ccc(C2OCC3(CO2)COC(c2ccc(OCCCCCCCCCCCO)cc2)OC3)cc1` (stereo unspecified): the GI50 in the assay on SK-MEL-2, in the assay on TK-10, in the assay on A498, with MDA-MB-435, with MDA-MB-231 and in the assay with PC-3 was > 50 µM (inactive) each time. Moreover, the GI50 in the assay with NCI-H23, with COLO 205, in the assay with K562, in the assay on HT-29, with M14 and in the assay on SF-295 was > 50 µM (inactive) in each case. Moreover, the GI50 in the assay with HCT-15 is greater than 50 µM; in the assay with BT-549 it was > 50 µM (inactive); with SNB-75, > 50 µM (inactive); in the assay with HOP-62 it was > 50 µM (inactive); in the assay with KM12, > 50 µM (inactive); in the assay on SNB-19, > 50 µM (inactive).

Consider `O=P(O)(O)c1ccc2c(c1)OCCOCCOCCOCCO2`, for which the GI50 in the assay with TK-10, with A498, in the assay with MDA-MB-435, in the assay with MDA-MB-231, with PC-3 and in the assay with NCI-H23 was > 100 µM (inactive) in each case. The GI50 in the assay with COLO 205 is > 100 µM (inactive); in the assay with K562, > 100 µM (inactive); with HT-29, > 100 µM (inactive); in the assay on SF-295, > 100 µM (inactive); in the assay on HCT-15 it was greater than 100 µM; in the assay on BT-549, > 100 µM (inactive). The GI50 in the assay with SNB-75, with HOP-62, with KM12 and with SNB-19 was > 100 µM (inactive) in each case.

Regarding `CCOc1cc(C2SCC(=O)N2c2ccc(Oc3ccc(Cl)cc3)c(Cl)c2)ccc1O` (stereo unspecified), the GI50 is 14 µM (inactive) in the assay with SK-MEL-2; 17.6 µM (inactive) in the assay on TK-10; 19 µM (inactive) in the assay on MDA-MB-435; 19.3 µM (inactive) in the assay with MDA-MB-231; 16.6 µM (inactive) with PC-3; 17 µM (inactive) with NCI-H23. The GI50 in the assay with COLO 205 is 22.5 µM (inactive); with K562, 27.1 µM (inactive); with HT-29, 17.1 µM (inactive); with M14, 23.5 µM (inactive); in the assay with SF-295, 18.9 µM (inactive); in the assay with HOP-92, 18.6 µM (inactive). In addition, the GI50 is 19.6 µM with HCT-15; 15.1 µM (inactive) with BT-549; 21.2 µM (inactive) in the assay with SNB-75; 17.6 µM (inactive) with HOP-62; 16.9 µM (inactive) in the assay with KM12; 17.8 µM (inactive) in the assay on SNB-19.

Turning to `COc1cccc(Nc2nc(C)c([N+](=O)[O-])c(Nc3cccc(OC)c3)n2)c1`, the GI50 in the assay with SK-MEL-2 was 15.9 µM (inactive); in the assay on RXF 393, 4.86 µM (inactive); in the assay with TK-10 it was 16.8 µM (inactive); with A498, 9.35 µM (inactive); with MDA-MB-231, 49.7 µM (inactive); in the assay on PC-3 it was 12.4 µM (inactive). The GI50 was 16.2 µM (inactive) with NCI-H23; 13.9 µM (inactive) in the assay on COLO 205; 8.65 µM (inactive) in the assay on K562; 12.6 µM (inactive) with HT-29; 10.4 µM (inactive) with M14; < 0.01 µM (active) in the assay on SF-295. Further, the GI50 in the assay with HOP-92 is 6.08 µM (inactive); in the assay with HCT-15, 18.4 µM; in the assay with BT-549 it was 1.85 µM (inactive); in the assay with SNB-75 it was 0.313 µM (active); in the assay on HOP-62, 12.1 µM (inactive); in the assay with SNB-19, 89.1 µM (inactive).

Take `COc1cccc2c1OC(c1ccc(Cl)cc1)C([N+](=O)[O-])=C2` (stereo unspecified): the GI50 in the assay with RXF 393 is 1.64 µM (inactive); in the assay on TK-10, 4.95 µM (inactive); in the assay with MDA-MB-435, 2.42 µM (inactive); with MDA-MB-231, 3.52 µM (inactive); with PC-3, 1.66 µM (inactive); in the assay on NCI-H23, 3.77 µM (inactive). The GI50 in the assay on COLO 205 is 2.19 µM (inactive); in the assay on K562 it was 0.411 µM (active); with HT-29, 1.35 µM (inactive); in the assay with M14, 1.11 µM (active); in the assay with SF-295 it was 3.1 µM (inactive); with HCT-15, 1.81 µM. Moreover, the GI50 in the assay on BT-549 was 1.24 µM (inactive); in the assay on HOP-62, 2.1 µM (inactive); in the assay on KM12, 2.08 µM (inactive); in the assay on SNB-19, 4.28 µM (inactive).
